Measured values as given in US20260109712A1, “RIFAMYCINS FOR NONTUBERCULOUS MYCOBACTERIA” (priority 2022, published 2026).
Converted amounts (≈) assume the structure as drawn. Read-outs that look alike come from different tables or passages of the source.

What was measured:
M. abscessus Bamboo [1] = test: MIC assay, clinical isolate Bamboo; type: cell-based, Mycobacterium abscessus; settings: for MIC: broth, M. abscessus Bamboo, Table 16, read-out: MIC
M. chelonae ATCC 35752 = test: MIC, anti-mycobacterial profiling; type: cell-based, Mycobacterium chelonae; settings: for MIC: mean of two experiments
M. abscessus Bamboo [2] = test: Broth MBC90 (bMBC90); type: cell-based, Mycobacterium abscessus; settings: broth, 5 days
Description: Broth MIC, broth MBC90 (bMBC90), and caseum surrogate MBC90 ([…]) of clinically used antibiotics and of novel ADP-ribosylation-resistant rifabutin analogs against M. abscessus Bamboo have been evaluated.

[3] = tested on: M. avium subsp. hominisuis MAC109; test: MIC, anti-mycobacterial profiling; type: cell-based, Mycobacterium avium; settings: for MIC: mean of two experiments
[4] = tested on: M. intracellulare ATCC 13950; test: MIC, anti-mycobacterial profiling; type: cell-based, Mycobacterium intracellulare; settings: for MIC: mean of two experiments
M. abscessus ATCC 19977 = test: MIC assay in 96-well plate format, wild-type strain; type: cell-based, Mycobacterium abscessus; settings: for MIC ratio: WT MIC/Δarr strain MIC
Procedure, shortened: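 Two-fold, ten-point dilutions in 7H9 with 2% DMSO; mid-log culture diluted to OD600=0.1 (1×10^7 CFU/mL). Incubated 3 days at 37 °C, shaking 110 RPM; growth = Day 3 minus Day 0 OD600, expressed as percentage of drug-free growth and plotted against concentration. Two biological replicates.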

[5] = tested on: M. abscessus subsp. bolletii CCUG 50184T; test: MIC, anti-mycobacterial profiling; type: cell-based, Mycobacterium abscessus; settings: for MIC: mean of two experiments
Description: (§1) MIC determination was carried out in 96-well plate format as previously described.^[13-14] 96-well plates were initially set up with 100 μL of 7H9 per well. For each compound, a ten-point two-fold dilution series starting at twice the desired highest concentration was dispensed onto the 96-well plates using a Tecan D300e Digital Dispenser, with the DMSO concentration normalized to 2%. M. abscessus culture grown to mid-log phase (OD600=0.4-0.6) was diluted to OD600=0.1 (1×10^7 CFU/mL). 100 μL of the resulting bacteria suspension was dispensed onto the 96-well plates containing compounds to give a final volume of 200 μL per well with an initial OD600=0.05 (5×10^6 CFU/mL) and final DMSO concentration of 1%. Final compound concentration ranges were typically 50-0.098 μM, 6.25-0.012 μM, 0.006-3.13 μM, or 0.003-1.56 μM. Untreated control wells are included on each plate that contain bacteria suspension and 1% DMSO. Plates were sealed with parafilm, stored in boxes with wet paper towels and incubated at 37° C. with shaking (110 RPM). Plates were incubated for 3 days. To determine growth, OD600 was measured using a Tecan Infinite M200 plate reader on Day 0 and Day 3. Two biological replicates were performed. Clarithromycin was included in each experiment as a positive control.
(§2) For each well on the 96-well plate, bacterial growth was calculated by subtracting the Day 0 OD600 value from the Day 3 OD600 value. For each compound series, the bacterial growth values for the untreated control wells were averaged to give the average drug-free bacterial growth. For compound-containing wells, percentage growth was calculated by dividing their growth values by the average drug-free bacterial growth for the compound series and multiplying by 100. For each compound series, we plotted percentage growth versus compound concentration. By visual inspection of the dose-response curve, we determined the MIC of a compound as the compound concentrations that would result in 90% growth inhibition.
(§3) The MIC data was determined using methods disclosed in Example 1.

[6] = tested on: M. abscessus subsp. massiliense CCUG 48898T; test: MIC, anti-mycobacterial profiling; type: cell-based, Mycobacterium abscessus; settings: for MIC: mean of two experiments
Description: as §1, §2, §3

M. kansasii ATCC 12478 = test: MIC, anti-mycobacterial profiling; type: cell-based, Mycobacterium kansasii; settings: for MIC: mean of two experiments
[7] = 90% inhibition of bacterial growth
[8] = Mycobacteroides chelonae, ATCC35752
[9] = Mycobacteroides abscessus, 120 h
[10] = Mycobacterium intracellulare, ATCC13950
[11] = Mycobacteroides abscessus, ATCC19977, M. abscessus ATCC 19977, 90% growth inhibition, read-out: WT Mab MIC
[12] = Mycobacteroides abscessus, ATCC19977, M. abscessus subsp. abscessus ATCC 19977, mean of two experiments, read-out: MIC
[13] = Mycobacterium kansasii, ATCC12478

Compound	MIC ratio (M. abscessus ATCC 19977)	MIC (M. abscessus Bamboo [1]; Mycobacteroides abscessus) [µM]	MIC (M. chelonae ATCC 35752; [8]) [µM]	MBC (M. abscessus Bamboo [2]; [9]) [µM]	MIC ([3]; Mycobacterium avium) [µM]	MIC [4, 10] [µM]	MIC (M. abscessus ATCC 19977; [11]) [µM]	MIC (M. abscessus ATCC 19977; [12]) [µM]	MIC ([5]; Mycobacteroides abscessus) [µM]	MIC ([6]; Mycobacteroides abscessus) [µM]	MIC (M. kansasii ATCC 12478; [13]) [µM]	other results
CO[C@H]1/C=C/O[C@@]2(C)Oc3c(C)c(O)c4c(c3C2=O)C2=NC3(CCN(CC(C)C)CC3)NC2=C(NC(=O)/C(C)=C/C=C/[C@H](C)[C@H](O)[C@@H](C)[C@@H](O)[C@@H](C)[C@H](OC(=O)c2cccnc2)[C@@H]1C)C4=O [5m, 25-O-(3-pyridinecarbonyl)-25-O-desacetyrifabutin]	0.9	–	–	–	–	–	–	–	–	–	–	Mab Bamboo MIC (M. abscessus Bamboo [1]; [7]): 0.023 µM; MIC (M. abscessus Bamboo [1]): 0.02 µM (≈ 0.0182 µg/mL); Fold improvement (RFB-5m vs RFB) (M. chelonae ATCC 35752): 30; MIC (M. chelonae ATCC 35752): 0.02 µM (≈ 0.0182 µg/mL); MBC (M. abscessus Bamboo [2]): 0.16 µM (≈ 0.146 µg/mL); Fold improvement (RFB-5m vs RFB) [3]: 0.8; MIC [3]: 0.04 µM (≈ 0.0364 µg/mL); Fold improvement (RFB-5m vs RFB) [4]: 0.8; MIC [4]: 0.06 µM (≈ 0.0546 µg/mL); Mab 19977 MIC (M. abscessus ATCC 19977; [7]): 0.025 µM; MIC (M. abscessus ATCC 19977; M. abscessus ATCC 19977, 90% growth inhibition, read-out: WT Mab MIC): 0.024 µM (≈ 0.0218 µg/mL); Fold improvement (RFB-5m vs RFB) (M. abscessus ATCC 19977; M. abscessus subsp. abscessus ATCC 19977): 55; MIC (M. abscessus ATCC 19977; M. abscessus subsp. abscessus ATCC 19977, mean of two experiments, read-out: MIC): 0.02 µM (≈ 0.0182 µg/mL); MIC (M. abscessus ATCC 19977; PK tables 2 and 8, read-out: WT MIC): 0.024 µM (≈ 0.0218 µg/mL); Fold improvement (RFB-5m vs RFB) [5]: 31; MIC [5]: 0.07 µM (≈ 0.0637 µg/mL); Fold improvement (RFB-5m vs RFB) [6]: 12; MIC [6]: 0.05 µM (≈ 0.0455 µg/mL); Fold improvement (RFB-5m vs RFB) (M. kansasii ATCC 12478): 1.0; MIC (M. kansasii ATCC 12478): 0.008 µM (≈ 0.00728 µg/mL)
CC[C@H]1OC(=O)[C@H](C)[C@@H](O[C@H]2C[C@@](C)(OC)[C@@H](O)[C@H](C)O2)[C@H](C)[C@@H](O[C@@H]2O[C@H](C)C[C@H](N(C)C)[C@H]2O)[C@](C)(OC)C[C@@H](C)C(=O)[C@H](C)[C@@H](O)[C@]1(C)O [clarithromycin, reference compound]	0.7	0.4 (≈ 0.299 µg/mL)	0.1 (≈ 0.0748 µg/mL)	2 (≈ 1.5 µg/mL)	0.5 (≈ 0.374 µg/mL)	0.4 (≈ 0.299 µg/mL)	1.45 (≈ 1.08 µg/mL)	1.5 (≈ 1.12 µg/mL)	4.3 (≈ 3.22 µg/mL)	1.1 (≈ 0.823 µg/mL)	0.3 (≈ 0.224 µg/mL)	–
CO[C@H]1/C=C/O[C@@]2(C)Oc3c(C)c(O)c4c(c3C2=O)C2=NC3(CCN(CC(C)C)CC3)NC2=C(NC(=O)/C(C)=C\C=C\[C@H](C)[C@H](O)[C@@H](C)[C@@H](O)[C@@H](C)[C@H](OC(C)=O)[C@@H]1C)C4=O [rifabutin, reference compound]	39.3	3 (≈ 2.54 µg/mL)	0.6 (≈ 0.508 µg/mL)	5 (≈ 4.24 µg/mL)	0.03 (≈ 0.0254 µg/mL)	0.05 (≈ 0.0424 µg/mL)	1.15 (≈ 0.974 µg/mL)	1.1 (≈ 0.932 µg/mL)	2.2 (≈ 1.86 µg/mL)	0.6 (≈ 0.508 µg/mL)	0.008 (≈ 0.00678 µg/mL)	MIC (M. abscessus ATCC 19977; Mycobacteroides abscessus, ATCC19977, PK tables 2 and 8, read-out: WT MIC): 1.15 µM (≈ 0.974 µg/mL)
